Experimental findings from a melting point compilation (Tetko et al.) are described below.

Molecules are shown by their SMILES.

The term melting point denotes the temperature of the solid-liquid transition. For `COc1ccc([N+](=O)[O-])cn1`, the melting point came to 108 °C.

Take `COC(=O)c1ccc2c(I)cn(C(=O)OC(C)(C)C)c2c1`: the melting point lay within 154 to 155 °C.

`O=C1OC(=O)C2CC(c3ccccc3)CCC12` (centres undefined) came in with a melting point of 105 to 106 °C.

In turn, `CCOC(=O)N1c2ccccc2C=CC1OCC` (centres undefined) displayed a melting point of 64.5 °C.

The molecule `O=c1ccn(C2OC(CO)C(O)C2O)c(=O)[nH]1` (centres undefined) registered a melting point of 168 °C.

On to `S=c1nnc(-c2ccccc2)c(Nc2ccc(Br)cc2)[nH]1`, for which the melting point was 359 °C.

The molecule `O=C(Nc1cccc(Cl)c1)OCC#CCCl` gave a melting point of 75 °C.

The molecule `Cc1cc(C)n(CN(CCO)Cn2nc(C)cc2C)n1` came in with a melting point of 82 to 84 °C.

Molecule `CC(C)(C)OC(=O)NC(Cc1ccccc1)C(=O)NN` (centres undefined) yielded a melting point of 131 to 136 °C.

For the molecule `N#C/C(=N\Nc1ccc(Cl)cc1Cl)c1nc(-c2ccc(Cl)cc2)cs1`, the melting point came to 246 °C.

Molecule `O=C(O)c1cccnc1Oc1ccc(F)cc1` registered a melting point of 187 to 189 °C.

Molecule `CCC(F)(F)C(=O)O` registered a melting point of 8 °C.

On to `CCN1CN(CC)CN(CC)C1`, for which the melting point is 70 °C.

Molecule `O=C(O)c1ccc(Oc2ccccc2)o1` had a melting point of 126 to 127 °C.

`O=C1CCSc2ccc(F)cc21` came in with a melting point of 94 to 95 °C.

`O=C(O)c1ccccc1O` displayed a melting point of 157 °C.

With `NC(Cc1cccc2ccccc12)=NO`, the melting point lay within 127 to 129 °C.

`CCN(CC)Cc1c(N)c2ccccc2oc1=O` displayed a melting point of 133 °C.

As to `COc1cc([N+](=O)[O-])c(Cl)cc1N`, the melting point was 131 to 133 °C.

Molecule `C=CC1CO1` (centres undefined) displayed a melting point of -135 °C.

Molecule `C[Si](c1ccccc1)(c1ccccc1)[Si](C)(c1ccccc1)c1ccccc1` displayed a melting point of 138 to 140 °C.

For the molecule `Cc1cc(C)c2ccccc2c1C`, the melting point was found to be 55.5 °C.

In turn, `OC(c1ccc(Cl)cc1)c1cc2ccccc2o1` (centres undefined) had a melting point of 48.5 °C.

As for `CC(=O)N1C(=O)/C(=C(\C#Cc2ccccc2)C(=O)c2ccccc2)c2ccccc21`, the melting point was determined as 189 °C.

Molecule `C/C=C/C(=O)OC` displayed a melting point of -42 °C.

Molecule `CCC(O)C(C)(C)C` (centres undefined) returned a melting point of -1.67 °C.

As for `CN(C)c1ccc(C=C2C=C(c3ccccc3)OC(c3ccccc3)=C2)cc1`, the melting point was found to be 181 °C.

As for `N#Cc1cc(Br)ccc1O`, the melting point was 160 to 162 °C.

In turn, `CC(C)NCC(O)COc1cccc2c1C=CC2` (centres undefined) came in with a melting point of 88.5 °C.

In the case of `CCn1c2ccc(Br)cc2c2cc(Br)ccc21`, the melting point is 139 °C.

The molecule `O=C(Nc1cc(O)cc(C(=O)O)c1)OCC1c2ccccc2-c2ccccc21` displayed a melting point of 234 to 236 °C.

Molecule `CCCCCCCCCCCCCCCCCCOCCOCCOCCOCCOCCOCCOCCOCCOCCOCCOCCOCCOCCOCCOCCOCCOCCOCCOCCOCCO` gave a melting point of 44 to 46 °C.

For the molecule `Clc1c2ccccc2cc2ccccc12`, the melting point turned out to be 104 °C.

`CCOC1OC(=O)c2c(OC)cccc21` (centres undefined) gave a melting point of 67 °C.

`CC12CCC3C(CCC4CCCCC43C)C1CCC2O` (centres undefined) returned a melting point of 166 °C.

`CN(C)C=Nc1c(I)cc(I)c(CCC(=O)O)c1I` gave a melting point of 168 °C.

Take `O=C(Cl)c1cccc2ccsc12`: the melting point was 84 to 86 °C.

`O=C1C=CC(=O)C(c2ccccc2)=C1` yielded a melting point of 114 °C.

`Cc1ccc(C=C2N=C(c3ccccc3)OC2=O)o1` registered a melting point of 159 to 160 °C.

In turn, `CC1COc2ccccc2N1C(=O)C(Cl)Cl` (centres undefined) came in with a melting point of 108 °C.

Consider `Cc1cc2nc(N)sc2cc1C`, for which the melting point was 185 to 189 °C.

Turning to `CC(OC1C(N)C(O)OC(CO)C1O)C(=O)O` (centres undefined), the melting point amounted to 148 °C.

Take `O=C(Nc1ccccn1)C(C(F)(F)F)C(F)(F)F`: the melting point was in the range of 108 to 110 °C.

As for `Nc1nccc(-c2cc(-c3cccc(C(F)(F)F)c3)no2)n1`, the melting point lay in the range of 184 to 185 °C.

In turn, `C/C(=N\c1cc(C)ccc1O)c1c(O)c2ccccc2n(-c2ccccc2)c1=O` yielded a melting point of 251 to 252 °C.

Take `O=C(NCCCc1ccccc1)c1cc([N+](=O)[O-])cc([N+](=O)[O-])c1`: the melting point turned out to be 123 °C.

In turn, `CCOC(=O)C1CCN(Cc2cccc(N)c2)CC1` showed a melting point of 42 to 46 °C.

Molecule `O=S(=O)(Cl)c1c(Cl)cc(Br)cc1Cl` gave a melting point of 45 °C.

For the molecule `CC(C)(C)OC(=O)N[C@@H](Cc1ccccc1F)C(=O)O`, the melting point lay within 92 to 96 °C.

On to `Cc1cc2c(ccc3nonc32)nn1`, for which the melting point lay within 167 to 169 °C.

For `N[C@@H]1CCCC[C@H]1N`, the melting point lay in the range of 40 to 45 °C.

The molecule `CCOC(=O)c1nn(-c2ccc(C)cc2)c(C)c1C(=O)c1noc(-c2ccccc2)c1S(=O)(=O)c1ccccc1` registered a melting point of 169 °C.

The molecule `COc1ccc(-c2cc(=O)c3c(O)cc(O)cc3o2)cc1O` came in with a melting point of 254 °C.

Turning to `O=C(O)c1ccc(Oc2cccnc2)o1`, the melting point fell in the range of 150 to 153 °C.

As to `C#CC1(O)CCC2C3CCC4C(C)(C)CCCC4(C)C3CCC21C` (centres undefined), the melting point was 156 to 158 °C.

For the molecule `CC(C)(C)S(=O)(=O)CC(N)=S`, the melting point lay within 184 to 186 °C.

On to `O=C1OCCOC(=O)C2CCCCC2C(=O)OCCOC(=O)C2CCCCC12` (centres undefined), for which the melting point came out at 210 °C.

`CCOc1ccc(NC(=O)CC(C)O)cc1` (centres undefined) showed a melting point of 160 °C.

Molecule `N#CC(C#N)=Cc1ccco1` came in with a melting point of 70 to 74 °C.

In the case of `O=C1NN=C(C(F)(F)F)C1=NNc1ccccc1`, the melting point is 186 °C.

`N#Cc1ncc(Cl)cc1Cl`: the melting point came to 101 °C.

In turn, `Cc1c(Cl)cccc1Nc1ccccc1C(=O)O` returned a melting point of 207 °C.

Molecule `Cc1nc(N)nc2c1c(=O)n(-c1ccccc1)c1ccccc21` had a melting point of 233 °C.

Turning to `O=Cc1ccc2c(c1)OCCO2`, the melting point fell in the range of 52 to 53 °C.

As to `CC(C)OC(=O)c1cc(-c2nn(C)c(C(F)(F)F)c2Br)c(F)cc1Cl`, the melting point is 80 °C.

`CCOC(=O)c1cc(C(C)=O)ccc1OCC`: the melting point was determined as 53 °C.

`Oc1ccc(Br)cn1` registered a melting point of 180 °C.

With `O=C1c2ccccc2C(=O)c2cc(CO)ccc21`, the melting point was 192 to 197 °C.

Molecule `COC(=O)c1ccc(Br)o1` had a melting point of 64 °C.

In the case of `OCCCC#CC#CCCCO`, the melting point lay in the range of 45.5 to 47 °C.

For `COc1cc(C(=O)Oc2ccc(/C=C/C(=O)c3ccccc3)cc2)cc(OC)c1OC`, the melting point stood at 95 °C.

In turn, `O=C(O)CC(Br)C(=O)O` (racemic) showed a melting point of 160 to 166 °C.

`COc1cncc(Br)c1`: the melting point is 31 °C.

In the case of `O=C1N(c2ccccc2)N(c2ccccc2/N=N\c2ccccc2)C1(c1ccccc1)c1ccccc1`, the melting point was found to be 163 °C.

With `CCCCCCCCCCCCCCCC(=O)OC1CCC2(C)C(=CCC3C2CCC2(C)C(C(C)CCCC(C)C)CCC32)C1` (centres undefined), the melting point was in the range of 75 to 77 °C.

`CCCCCCCCCCCCCCCCC(CCC)c1ccccc1` (centres undefined) registered a melting point of 31.4 °C.

The molecule `CCCC(CC)c1ccccc1` (centres undefined) showed a melting point of -55.4 °C.

`CON=O` yielded a melting point of -16 °C.

As to `CC(C)(O)C#Cc1ccc(C=NO)cc1`, the melting point was 109 to 112 °C.

With `CCOC(=O)CC(/C=C1\C(=O)C2(C)CCC1C2(C)C)(/C=C1\C(=O)C2(C)CCC1C2(C)C)C(=O)OCC` (centres undefined), the melting point amounted to 105 °C.

Turning to `CSc1ncccc1C(=O)NC(CC(C)C)C(=O)O` (centres undefined), the melting point is 143 to 146 °C.

In turn, `CC(=O)OC1(C(C)=O)CCC2C3C=C(Cl)C4=CC(=O)CCC4(C)C3CCC21C` (centres undefined) had a melting point of 213 °C.

The molecule `CC(C)(C)OC(=O)N1CCC(Oc2ccccc2[N+](=O)[O-])CC1` showed a melting point of 91 to 93 °C.

Take `C#CCOc1ccc(N)cc1C(=O)NCCCC`: the melting point came out at 84 °C.

Molecule `CCCCCCCCCCCCCCCCCC(CC)c1ccccc1` (centres undefined) gave a melting point of 29.3 °C.

The molecule `COc1ccc(-c2csc(/C(C#N)=C\c3ccco3)n2)cc1` came in with a melting point of 115 °C.

As for `COc1ccc(-c2oc3c(C)c(OC)cc(OC)c3c(=O)c2C)cc1OC`, the melting point came out at 217 °C.

The molecule `O=C=Nc1cccc2nsnc12` showed a melting point of 81 to 82 °C.

`N=c1oc2ccccc2cc1-c1nc2ccccc2s1` showed a melting point of 186 °C.

In turn, `Cc1cc(C)c([N+](=O)[O-])c(F)c1` showed a melting point of 56 °C.

Consider `c1ccc(CSc2nnc(SCc3ccccc3)nn2)cc1`, for which the melting point lay within 137 to 139 °C.

For `C=CCC1(C(C)CCC)C(=O)NC(=S)NC1=O` (centres undefined), the melting point was 132 °C.

`CCOC(CN1C(=O)c2ccccc2C1=O)OCC` yielded a melting point of 72 to 74 °C.

`CC(N)P(=O)(O)O` (racemic): the melting point is 283 to 284 °C.

In the case of `NNC(=O)CN1c2ccccc2Sc2ccccc21`, the melting point fell in the range of 216 to 218 °C.

Consider `O=C1COc2cc(O)ccc21`, for which the melting point is 241 °C.

`O=C1CCC2C3CCC(=O)C3C12` (centres undefined) yielded a melting point of 65 to 69 °C.

Regarding `COc1cccc(C=CC(=O)O)c1`, the melting point fell in the range of 116 to 119 °C.

In the case of `CC12CCC3C(CCC4(C)CC(=O)CCC34C)C1CCC2=O` (centres undefined), the melting point was determined as 148 °C.

`CN(C)CCCN1c2ccccc2S(=O)c2ccc(Cl)cc21` (centres undefined) yielded a melting point of 115 °C.

Turning to `Sc1nnc(SCCSc2nnc(S)s2)s1`, the melting point lay in the range of 202 to 204 °C.

In the case of `Cc1ccc(C)c(N/N=C(\C#N)c2nc3ccccc3n2C)c1`, the melting point was 260 °C.

In the case of `CCC1(CC)C(=O)NC(=O)NC1=O`, the melting point was 190 °C.

In the case of `O=C(O)c1cccc(-c2ccncc2)c1`, the melting point was found to be 268 °C.

`CCOC(=O)CCCCCC(=O)O` yielded a melting point of 10 °C.

Molecule `O=C(O)C1c2ccccc2-c2ccccc21` had a melting point of 229 °C.

On to `O=Cc1ccc(Cl)c(F)c1`, for which the melting point was 47 °C.

`COc1cc(OC)c(OC)cc1/C=C/C(=O)O`: the melting point lay in the range of 164 to 167 °C.

Consider `Cc1ccccc1C(=O)Cc1ccccc1C(=O)N(C)c1ccccc1`, for which the melting point came to 119 °C.
